PMC10527105, “Chirality Matters: Fine-Tuning of Novel Monoamine Reuptake Inhibitors Selectivity through Manipulation of Stereochemistry” (Biomolecules, 2023)

Tests used:
[1] = molecular target: T1, human dopamine transporter/SLC6A3 (DAT) (Homo sapiens, UniProt Q01959); assay: Cellular uptake experiments: [3H]-dopamine reuptake inhibition in transporter-expressing HEK293 cells; assay type: cell-based; conditions: Reuptake Inhibition (IC50 ± SE, µM) DAT, cells stably expressing DAT; [3H]-dopamine 1 µM; screening cut-off 50 µM
T1 construct: expressed in transfected cells; host or cells: HEK293
Summary of the method: (§1)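 Stably transfected HEK293 cells preincubated 5 min with compound, then 1 µM [3H]-substrate for 2.5 min (SERT: 5 min) at 25 °C, pH 7.1 buffer; uptake counted by scintillation. Nonspecific uptake defined with 10 µM mazindol (DAT, NET) or 10 µM clomipramine (SERT).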

[2] = molecular target: T2, noradrenaline transporter/SLC6A2 (NET) (Homo sapiens, UniProt P23975); assay: Cellular uptake experiments: [3H]-noradrenaline reuptake inhibition in transporter-expressing HEK293 cells; assay type: cell-based
T2 construct: expressed in transfected cells; host or cells: HEK293
Summary of the method: as §1

[3] = molecular target: T3, human serotonin transporter/SLC6A4 (SERT) (Homo sapiens, UniProt P31645); assay: Cellular uptake experiments: [3H]-serotonin reuptake inhibition in transporter-expressing HEK293 cells; assay type: cell-based; conditions: Reuptake Inhibition (IC50 ± SE, µM) SERT, cells stably expressing SERT; [3H]-serotonin 1 µM; screening cut-off 50 µM
T3 construct: expressed in transfected cells; host or cells: HEK293
Summary of the method: as §1

human SERT = molecular target: T4, human SERT (Homo sapiens, UniProt P31645); assay: Radioligand binding assay, [3H]imipramine, CHO cells (Eurofins Cerep); conditions: human SERT expressed in CHO cells; read-out: Ki, binding sites of the SERT (against [3H]imipramine)
T4 construct: host or cells: CHO
Procedure: Binding experiments. Binding affinity to the human DAT, SERT, and NET stable proteins expressed in CHO cells was evaluated in in vitro radioligand binding assays. Non-specific binding was determined using [^3H]BTCP, [^3H]imipramine, and ^[3H] nisoxetine for hDAT, hSERT, and hNET, respectively. The IC50 values were calculated by non-linear regression analysis of the competition curves generated from the mean replicate values. The Ki values were calculated using the Cheng–Prusoff equation (Ki = IC50/(1 + […])). Binding assays were carried out by Eurofins (Cerep SA, Celle l’Evescault, France), Study No. 100053935. For an in-depth description, please refer to the report in the supporting information file.

T2 sequence (P23975 whole entry): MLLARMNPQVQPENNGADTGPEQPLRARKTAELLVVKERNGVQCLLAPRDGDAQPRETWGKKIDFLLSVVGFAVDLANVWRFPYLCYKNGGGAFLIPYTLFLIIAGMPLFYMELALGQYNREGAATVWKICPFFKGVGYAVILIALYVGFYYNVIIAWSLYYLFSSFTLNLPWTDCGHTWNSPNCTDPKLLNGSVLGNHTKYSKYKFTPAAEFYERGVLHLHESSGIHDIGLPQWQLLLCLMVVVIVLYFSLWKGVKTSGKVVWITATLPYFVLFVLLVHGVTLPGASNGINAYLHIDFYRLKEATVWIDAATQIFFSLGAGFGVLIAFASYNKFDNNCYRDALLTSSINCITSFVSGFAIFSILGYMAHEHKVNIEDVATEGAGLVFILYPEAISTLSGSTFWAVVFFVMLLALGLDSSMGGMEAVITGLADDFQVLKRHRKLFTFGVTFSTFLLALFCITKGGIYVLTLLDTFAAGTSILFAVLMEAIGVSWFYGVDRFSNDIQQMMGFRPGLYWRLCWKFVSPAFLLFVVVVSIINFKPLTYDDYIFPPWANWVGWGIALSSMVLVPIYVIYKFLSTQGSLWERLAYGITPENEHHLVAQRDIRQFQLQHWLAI
T1 sequence (Q01959 whole entry): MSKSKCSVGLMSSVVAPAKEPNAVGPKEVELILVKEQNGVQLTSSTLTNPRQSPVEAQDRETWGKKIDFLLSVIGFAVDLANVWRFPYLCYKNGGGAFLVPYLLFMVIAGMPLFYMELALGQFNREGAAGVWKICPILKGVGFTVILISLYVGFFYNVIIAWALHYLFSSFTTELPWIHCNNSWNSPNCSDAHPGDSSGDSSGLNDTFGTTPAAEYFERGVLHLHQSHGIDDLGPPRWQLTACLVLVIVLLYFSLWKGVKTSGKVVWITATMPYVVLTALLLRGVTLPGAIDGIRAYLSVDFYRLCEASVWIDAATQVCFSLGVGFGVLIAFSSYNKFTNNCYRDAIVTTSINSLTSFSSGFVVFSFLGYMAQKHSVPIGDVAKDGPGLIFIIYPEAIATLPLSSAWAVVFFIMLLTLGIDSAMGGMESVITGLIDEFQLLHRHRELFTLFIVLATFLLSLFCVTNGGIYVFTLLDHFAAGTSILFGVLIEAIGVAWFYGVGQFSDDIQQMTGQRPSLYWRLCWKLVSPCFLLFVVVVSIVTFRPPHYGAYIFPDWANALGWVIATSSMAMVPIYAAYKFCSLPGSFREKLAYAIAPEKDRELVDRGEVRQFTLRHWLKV
T4 sequence (P31645 whole entry): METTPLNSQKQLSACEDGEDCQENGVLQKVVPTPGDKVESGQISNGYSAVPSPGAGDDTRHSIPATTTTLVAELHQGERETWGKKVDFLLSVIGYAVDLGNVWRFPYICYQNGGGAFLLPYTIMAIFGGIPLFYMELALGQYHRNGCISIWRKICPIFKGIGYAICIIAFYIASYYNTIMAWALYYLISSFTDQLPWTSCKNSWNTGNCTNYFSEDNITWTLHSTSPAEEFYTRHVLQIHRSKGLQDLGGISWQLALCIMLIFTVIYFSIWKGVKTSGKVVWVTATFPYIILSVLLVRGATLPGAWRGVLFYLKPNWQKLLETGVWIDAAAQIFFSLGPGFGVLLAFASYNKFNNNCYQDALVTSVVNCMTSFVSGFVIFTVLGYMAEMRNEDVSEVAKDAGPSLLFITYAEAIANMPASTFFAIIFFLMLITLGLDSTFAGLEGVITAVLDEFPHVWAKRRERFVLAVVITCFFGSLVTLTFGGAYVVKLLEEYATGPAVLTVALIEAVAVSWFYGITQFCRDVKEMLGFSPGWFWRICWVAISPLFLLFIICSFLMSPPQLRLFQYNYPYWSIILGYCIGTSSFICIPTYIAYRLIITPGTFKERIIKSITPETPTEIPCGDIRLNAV
T3 sequence (P31645 whole entry): as above

Row | SMILES | IC50 [1] [µM] | IC50 [2] [µM] | IC50 [3] [µM] | Ki (human SERT) [µM]
1 | [O-][S@@+](Cc1cccs1)[C@@H](c1ccccc1)c1cccc(Br)c1 [Compound 7h, (S,S)-2-((((3-bromophenyl)(phenyl)methyl)sulfinyl)methyl)thiophene] | 0.48 ± 0.11 | 16.4 ± 0.6 | > 50 | > 10
2 | [O-][S@+](Cc1cccs1)[C@H](c1ccccc1)c1cccc(Br)c1 [Compound 8h, (R,R)-2-((((3-bromophenyl)(phenyl)methyl)sulfinyl)methyl)thiophene] | 0.3 ± 0.03 | > 50 | 14 ± 3 | > 10
